In assay [1] the test system is prostatic tumor R-3327-H according to Dunning. The experiment in a line: Antagonistic effect on Dunning R-3327-H prostate carcinoma in rats, 30 days. It counts as in vivo. To be noted: encapsulated 25 micrograms daily i.m. An excerpt:
(DUNNING R-3327-H PROSTRATE CARCINOMA).

Assay [2] is described as follows: Body and organ weights of the rats bearing the Dunning R-3327-H tumor. To be noted: 30 days, encapsulated 25 micrograms daily i.m.
Description: In vivo tests were carried out on groups of 7 to 10 animals during a period of 30 days.
The administration of the non-encapsulated Compound A adequately dissolved in a biocompatible solvent was achieved by the subcutaneous injection of two doses every day, each dose containing 25 micrograms of compound A (Table 2) or 12.5 micrograms of compound A (Table 3).
The administration of the encapsulated compound A was achieved by the daily intra-muscular injection of doses of the preparation suspended in a biocompatible solvent, each such dose containing 25 micrograms of compound A.
Setting [3] is: Table 2, non-encapsulated 2 x 25 micrograms/day s.c.
Setting [4] is: Table 3, non-encapsulated 2 x 12.5 micrograms/day s.c.

For `CC(C)C[C@H](NC(=O)[C@@H](Cc1c[nH]c2ccccc12)NC(=O)[C@H](Cc1ccc(O)cc1)NC(=O)[C@H](CO)NC(=O)[C@H](Cc1c[nH]c2ccccc12)NC(=O)[C@H](Cc1c[nH]cn1)NC(=O)[C@@H]1CCC(=O)N1)C(=O)N[C@@H](CCCNC(=N)N)C(=O)N1CCC[C@H]1C(=O)NCC(N)=O` [Compound A non-encapsulated, (pyro) Glu-His-Trp-Ser-Tyr-D-Trp-Leu-Arg-Pro-Gly-NH2], in assay [1] (setting [3]), the “Increase of tumor volume” value was 85 + 19% and the “Tumor (Dunning R3327-H Prostate Carcinoma)” value is given as 546 + 0.14 mg. Also, in assay [1] (setting [4]), the “Increase of tumor volume” value is reported as 110 + 28% and the “Tumor (Dunning R3327-H Prostate Carcinoma)” value is listed as 260 + 68 mg. For the same compound, in assay [2] (setting [3]), the Testicles was 1.36 ± 0.14 g and the “Ventral portion of prostate” value was 54 + 5 mg. In addition, in assay [2] (setting [4]), the Testicles was 1.83 ± 0.07 g and the “Ventral portion of prostate” value is on record as 88 + 7 mg.

The values above are taken from patent US4835139A, “Process for increasing the antagonistic effect of peptidic compounds on hormone-dependent diseases” (Debiopharm S.A., priority 1983, dated 1989).
